One experiment has as its target T1, flkGST (Homo sapiens, UniProt P35968).
T1 construct: GST
Briefly: bio flkGST assay. The format is biochemical.

A further experiment deals with pyk2 (Homo sapiens, UniProt Q14289). Briefly: bio pyk2 assay. The format is biochemical.
A further experiment addresses T2, human flk-1 (Homo sapiens, UniProt P35968).
T2 construct: host or cells: Flk-1/NIH cells (NIH fibroblasts)
The experiment is described as follows: Biochemical FLK-1 assay (flk-1 autophosphorylation ELISA). The conditions noted are these: read-out: bio FLK1 IC50 (μM) % if inhibition at 100. The method, boiled down: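 Flk-1 from lysates of NIH fibroblasts over-expressing human flk-1 (50 μg/well) was captured on anti-flk-1 antibody-coated plates, then autophosphorylated with test compounds and ATP (0.3 mM working solution) for 60 min at room temperature before EDTA stop. Phosphotyrosine was detected with biotinylated 4G10, avidin-biotin peroxidase and TMB at 450 nm.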
(An ELISA detects its analyte on a solid surface through an enzyme-linked reagent.)

Experiment [1] relates to HUV-EC-C cells (VEGF, Flk-1/KDR). Briefly: HUV-EC-C assay, VEGF-stimulated 3H-thymidine incorporation. The following applies: Homo sapiens, read-out: HUVEC-VEGF IC50. Format: cell-based. Background: Uptake of a labelled nucleoside into DNA is a usual measure of proliferation.
Experimental: Repeat the wash two more times with D-PBS, resuspend the cells in-about 1 ml assay medium/15 cm^2 of tissue culture flask. […] Add cells to 96-well flat-bottom plates at 100 μl/well or 0.8-1.0×10^4 cells/well, incubate −24h at 37° C., 5% CO2.
Use the same assay medium as mentioned in day 0, step 2 above. Titrations are made by adding 90 μl/well of test compound at 200 μM (4× the final well concentration) to the top well of a particular plate column. Since the stock test compound is usually 20 mM in DMSO, the 200 μM drug concentration contains 2% DMSO.
A diluent made up to 2% DMSO in assay medium (F12K+0.5% fetal bovine serum) is used as diluent for the test compound titrations in order to dilute the test compound but keep the DMSO concentration constant. Add this diluent to the remaining wells in the column at 60 μl/well. Take 60 μl from the 120 μl of 200 μM test compound dilution in the top well of the column and mix with the 60 μl in the second well of the column. Take 60 μl from this well and mix with the 60 μl in the third well of the column, and so on until two-fold titrations are completed. When the next-to-the-last well is mixed, take 60 μl of the 120 μl in this well and discard it. Leave the last well with 60 μl of DMSO/media diluent as a non-test compound-containing control. […] In triplicate, add 50 μl/well of 80 μg/ml VEGF, 20 ng/ml ECGF, or media control to each test compound condition. As with the test compounds, the growth factor concentrations are 4× the desired final concentration. Use the assay media from day 0 step 2 to make the concentrations of growth factors.
Freeze plates overnight at −20° C.
A further experiment has as its target T3, src protein kinase (Gallus gallus, UniProt P00523).
T3 construct: host or cells: Schizosaccharomyces pombe SP200
Briefly: Biochemical SRC assay (phosphorylation of biotinylated peptide). The following applies: read-out: bio src IC50.

The target of experiment [2] is T4, 3T3 cell line genetically engineered to express human PDGF-R (Homo sapiens, UniProt P09619).
T4 construct: expressed in transfected cells; host or cells: 3T3
The experiment is described as follows: PDGF-induced BrdU incorporation assay. The conditions noted are these: read-out: PDGF-Induced BrdU Incorp. IC50. Format: cell-based.
Experimental: The general procedure is as follows: a compound is introduced to cells expressing the test kinase, either naturally or recombinantly, for a selected period of time after which, if the test kinase is a receptor, a ligand known to activate the receptor is added. […] The cellular/biologic assays described herein measure the amount of DNA made in response to activation of a test kinase, which is a general measure of a proliferative response. The general procedure for this assay is as follows: a compound is introduced to cells expressing the test kinase, either naturally or recombinantly, for a selected period of time after which, if the test kinase is a receptor, a ligand known to activate the receptor is added. After incubation at least overnight, a DNA labeling reagent such as Bromodeoxyuridine (BrdU) or 3H-thymidine is added. The amount of labeled DNA is detected with either an anti-BrdU antibody or by measuring radioactivity and is compared to control cells not contacted with a test compound.
PDGF-Induced BrdU Incorporation Assay
Protocol • (1) Cells are seeded at 8000 cells/well in DMEM, 10% CS, 2mM Gln in a 96 well plate. […] The negative control wells receive serum free DMEM with 0.1% BSA only, the positive control cells receive the ligand (PDGF) but no test compound. […] FixDenat solution is added (50 μ/well) and the plates are incubated at room temperature for 45 minutes on a plate shaker. • (6) The FixDenat solution is thoroughly removed by decanting and tapping the inverted plate on a paper towel. Milk is added (5% dehydrated milk in PBS, 200 μ/well) as a blocking solution and the plate is incubated for 30 minutes at room temperature on a plate shaker. • (7) The blocking solution is removed by decanting and the wells are washed once with PBS. Anti-BrdU-POD solution (1:100 dilution in PBS, 1% BSA) is added (100 μl/well) and the plate is incubated for 90 minutes at room temperature on a plate shaker. • (8) The antibody conjugate is thoroughly removed by decanting and rinsing the wells 5 times with PBS, and the plate is dried by inverting and tapping on a paper towel. • (9) TMB substrate solution is added (100 μl/well) and incubated for 20 minutes at room temperature on a plate shaker until color development is sufficient for photometric detection. • (10) The absorbance of the samples are measured at 410 nm (in “dual wavelength” mode with a filter reading at 490 nm, as a reference wavelength) on a Dynatech ELISA plate reader.

T2 sequence (P35968 20-1356): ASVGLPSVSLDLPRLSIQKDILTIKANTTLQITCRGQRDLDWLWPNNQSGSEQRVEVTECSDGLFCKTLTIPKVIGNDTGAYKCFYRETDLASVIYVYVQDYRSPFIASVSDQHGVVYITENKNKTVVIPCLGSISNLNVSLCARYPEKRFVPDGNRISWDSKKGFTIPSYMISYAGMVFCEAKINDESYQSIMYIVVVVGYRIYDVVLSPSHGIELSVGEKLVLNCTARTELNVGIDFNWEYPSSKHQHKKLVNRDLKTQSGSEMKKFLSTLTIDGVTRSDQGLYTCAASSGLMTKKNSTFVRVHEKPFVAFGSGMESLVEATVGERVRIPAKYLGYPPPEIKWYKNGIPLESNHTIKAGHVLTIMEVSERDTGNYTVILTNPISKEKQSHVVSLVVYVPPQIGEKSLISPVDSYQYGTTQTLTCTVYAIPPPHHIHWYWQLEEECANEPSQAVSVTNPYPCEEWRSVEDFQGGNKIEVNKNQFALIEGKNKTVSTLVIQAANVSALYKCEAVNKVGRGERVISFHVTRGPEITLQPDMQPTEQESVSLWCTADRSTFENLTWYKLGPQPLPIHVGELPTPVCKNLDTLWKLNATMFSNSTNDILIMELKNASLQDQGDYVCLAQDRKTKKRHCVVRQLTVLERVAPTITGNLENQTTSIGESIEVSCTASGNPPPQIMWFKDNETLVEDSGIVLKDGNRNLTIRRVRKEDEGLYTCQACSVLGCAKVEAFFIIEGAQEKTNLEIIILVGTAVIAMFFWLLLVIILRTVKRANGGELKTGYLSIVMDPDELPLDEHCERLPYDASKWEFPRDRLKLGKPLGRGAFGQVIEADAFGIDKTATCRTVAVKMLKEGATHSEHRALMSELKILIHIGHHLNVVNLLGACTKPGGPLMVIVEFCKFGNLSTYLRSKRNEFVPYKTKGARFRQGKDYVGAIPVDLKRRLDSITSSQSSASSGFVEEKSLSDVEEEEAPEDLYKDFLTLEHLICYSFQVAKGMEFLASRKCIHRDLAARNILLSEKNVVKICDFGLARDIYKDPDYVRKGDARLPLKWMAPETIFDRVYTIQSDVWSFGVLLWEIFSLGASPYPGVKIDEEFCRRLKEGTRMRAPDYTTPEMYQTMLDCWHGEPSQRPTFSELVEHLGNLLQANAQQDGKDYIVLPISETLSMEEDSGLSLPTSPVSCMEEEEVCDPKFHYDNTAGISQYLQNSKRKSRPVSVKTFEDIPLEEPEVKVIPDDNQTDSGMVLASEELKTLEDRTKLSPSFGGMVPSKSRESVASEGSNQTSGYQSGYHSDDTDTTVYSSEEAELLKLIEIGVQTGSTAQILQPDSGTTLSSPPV
pyk2, sequence (Q14289 whole entry, species assumed): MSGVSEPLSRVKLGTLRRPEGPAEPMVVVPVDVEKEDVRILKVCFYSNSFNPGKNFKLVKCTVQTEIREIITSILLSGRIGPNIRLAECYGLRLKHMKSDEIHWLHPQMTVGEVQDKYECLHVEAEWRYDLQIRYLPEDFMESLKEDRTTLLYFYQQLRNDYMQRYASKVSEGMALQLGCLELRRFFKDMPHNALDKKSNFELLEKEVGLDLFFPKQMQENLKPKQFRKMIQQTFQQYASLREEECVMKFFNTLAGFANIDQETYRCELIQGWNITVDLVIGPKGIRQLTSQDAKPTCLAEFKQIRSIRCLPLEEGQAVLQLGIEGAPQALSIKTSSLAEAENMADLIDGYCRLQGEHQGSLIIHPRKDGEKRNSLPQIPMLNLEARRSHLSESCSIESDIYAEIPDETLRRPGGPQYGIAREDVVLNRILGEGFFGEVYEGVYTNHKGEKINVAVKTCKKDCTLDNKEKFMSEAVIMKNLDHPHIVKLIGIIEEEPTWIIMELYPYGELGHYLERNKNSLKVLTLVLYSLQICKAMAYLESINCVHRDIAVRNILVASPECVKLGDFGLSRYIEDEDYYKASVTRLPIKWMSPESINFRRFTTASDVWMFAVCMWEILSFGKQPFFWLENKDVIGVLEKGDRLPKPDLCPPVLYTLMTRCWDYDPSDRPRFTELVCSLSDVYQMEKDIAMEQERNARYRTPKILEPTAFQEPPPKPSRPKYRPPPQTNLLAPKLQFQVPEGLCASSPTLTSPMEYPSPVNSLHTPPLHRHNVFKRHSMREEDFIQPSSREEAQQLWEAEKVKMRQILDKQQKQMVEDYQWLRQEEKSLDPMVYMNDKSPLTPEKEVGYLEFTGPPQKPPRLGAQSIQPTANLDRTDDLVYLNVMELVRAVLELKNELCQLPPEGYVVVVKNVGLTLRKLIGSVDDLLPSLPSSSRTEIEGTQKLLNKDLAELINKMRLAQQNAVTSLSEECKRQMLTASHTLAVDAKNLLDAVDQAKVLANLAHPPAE
T1 sequence (P35968 786-1356 limits assumed): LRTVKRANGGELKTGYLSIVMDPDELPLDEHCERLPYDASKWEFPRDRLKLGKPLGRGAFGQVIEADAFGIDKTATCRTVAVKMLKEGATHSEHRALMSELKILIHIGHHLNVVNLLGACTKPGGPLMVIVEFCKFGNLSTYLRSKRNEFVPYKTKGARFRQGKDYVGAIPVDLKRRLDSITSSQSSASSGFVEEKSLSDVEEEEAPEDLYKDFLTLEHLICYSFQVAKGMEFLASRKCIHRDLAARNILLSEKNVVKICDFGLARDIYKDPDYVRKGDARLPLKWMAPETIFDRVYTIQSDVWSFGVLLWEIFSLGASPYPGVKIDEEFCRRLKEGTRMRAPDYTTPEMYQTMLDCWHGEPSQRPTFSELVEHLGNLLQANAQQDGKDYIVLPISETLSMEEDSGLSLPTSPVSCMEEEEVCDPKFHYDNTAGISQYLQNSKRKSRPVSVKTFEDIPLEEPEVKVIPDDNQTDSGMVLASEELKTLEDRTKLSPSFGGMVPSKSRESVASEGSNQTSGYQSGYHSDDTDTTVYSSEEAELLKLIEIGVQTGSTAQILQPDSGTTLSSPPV
Experimental for src protein kinase: This assay is used to determine src protein kinase activity measuring phosphorylation of a biotinylated peptide as the readout.
Yeast transformed with src (Sugen, Inc., Redwood City, Calif.). • b. Cell lysates: Yeast cells expressing src are pelleted, washed once with water, re-pelleted and stored at −80° C. until use. • c. N-terminus biotinylated [sequence] is prepared by standard procedures well known to those skilled in the art. • d. DMSO: Sigma, St. Louis, Mo. • e. […] Vecastain ELITE ABC reagent: Vector, Burlingame, Calif. • h. […] S. Pombe strain SP200 (h-s leul.32 ura4 ade210) is grown as described and transformations are pRSP expression plasmids are done by the lithium acetate method (Superti-Furga, supra). Cells are grown in the presence of 1 μM thiamine to repress expression from the nmtl promoter or in the absence of thiamine to induce expression. • i. […] Turbo TMB-ELISA peroxidase substrate: Pierce Chemical.
Buffer Solutions • a. PBS (Dulbecco's Phosphate-Buffered Saline): GIBCO PBS, GIBCO Cat. #450-1300EB. • b. Blocking Buffer: 5% Non-fat milk (Carnation) in PBS. • c. Carbonate Buffer: Na2CO4 from Fischer, Cat. # S495, make up 100 mM stock solution. • d. Kinase Buffer: 1.0 ml (from 1M stock solution) MgCl2, 0.2 ml (from a 1M stock solution) MnCl2, 0.2 ml (from a 1M stock solution) DTT, 5.0 ml (from a 1M stock solution) HEPES, 0.1 ml TX-100, bring to 10 ml total volume with MilliQ H2O. • e. […] NaCl: Fischer Cat. # S271-10, Make up 5M stock solution with MilliQ H2O. • i. […] MgCl2: Fischer Cat. # M33-500, make up 1M stock solution with MilliQ H2O. • k. […] MnCl2: Fischer Cat. # M87-100, make up 1M stock solution with MilliQ H2O. • n. DTT: -Fischer Cat. # BP172-5. • o. […] Kinase Reaction Mixture: Amount per assay plate (100 wells): 1.0 ml Kinase Buffer, 200 λg GST-ζ, bring to final volume of 8.0 ml with MilliQ H2O. • q. […] Then add 1 drop of reagent B. Put tube on orbital shaker at room temperature and mix for 30 minutes.
Preparation of src Coated ELISA Plate. • 1. Coat ELISA plate with 0.5 μg/well anti-src mab in 100 μl of pH 9.6 sodium carbonate buffer, hold at 40° C. overnight. • 2. Wash wells once with PBS. • 3. […] Wash plate 5× with PBS. • 5. Add 10 μg/well of src transformed yeast lysates diluted in Lysis Buffer (0.1 ml total volume per well). (Amount of lysate may vary between batches.) Shake plate for 20 minutes at room temperature.
Preparation of Phosphotyrosine Antibody-coated ELISA Plate. • 1. 4G10 plate: coat 0.5 μg/well 4G10 in 100 μl PBS overnight at 4° C. and block with 150 μl of 5% milk in PBS for 30 minutes at room temperature.
Kinase Assay Procedure. • 1. Remove unbound proteins from plates and wash plates 5× with PBS. • 2. […] Wash plate 5× with TBST. • 10. Incubate with Vectastain ELITE ABC reagent (100 μl/well) for 30 min. at room temperature. • 11. Wash the wells 5× with TBST. • 12. Develop with Turbo TMB.

The term IC50 denotes the concentration that inhibits the measured activity by half. Regarding `Cc1ccc2c(c1)/C(=C/c1[nH]c3c(c1CCC(=O)O)CCCC3)C(=O)N2` [Example 194, 3-[2-(5-Methyl-2-oxo-1,2-dihydroindol-3-ylidenemethyl)-4,5,6,7-tetrahydro-1H-indol-3-yl]-propionic acid], the IC50 at flkGST was determined as 6670 nM; against pyk2, 4090 nM; on human flk-1, 0.001 µM; in experiment [1], 1 nM; on src protein kinase it was 20600 nM; in experiment [2], 14200 nM.

Consider `Cc1c[nH]c(/C=C2\C(=O)Nc3ccc(Br)cc32)c1CCC(=O)O` [Example 220, 3-[2-(5-Bromo-2-oxo-1,2-dihydroindol-3-ylidenemethyl)-4-methyl-1H-pyrrol-3-yl]-propionic acid], for which the IC50 was 110 nM on flkGST; 1890 nM against pyk2; 0.35 µM on human flk-1; 40 nM in experiment [1]; 6480 nM on src protein kinase; 8500 nM in experiment [2].

Turning to `O=C(O)CCc1c(/C=C2\C(=O)Nc3ccc(Cl)cc32)[nH]c2c1CCCC2` [Example 191, 3-[2-(5-Chloro-2-oxo-1,2-dihydroindol-3-ylidenemethyl)-4,5,6,7-tetrahydro-1H-indol-3-yl]-propionic acid], the IC50 worked out at 40 nM against flkGST; 68500 nM against pyk2; 0.02 µM at human flk-1; 0.04 nM in experiment [1]; 12000 nM on src protein kinase; 1100 nM in experiment [2].

These data come from US6855730B2, “3-methylidenyl-2-indolinone modulators of protein kinase” (Sugen, Inc., priority 1998, dated 2005).
